Patent US20080103191A1, “ENTACAPONE-DERIVATIVES” (priority 2006, published 2008)
≈ marks a conversion by molar mass, not a printed value. Read-outs that look alike come from different tables or passages of the source.

Key:
[1] = Log D (pH 7.4) by isocratic HPLC; format: physicochemical; conditions: YMC Pro C18 column, phosphate buffer pH 7.4/acetonitrile 45/55
Protocol: LogD is an indicator for absorption and lipophilicity for ionized compounds under defined pH conditions and is measured by applying an isocratic HPLC Method at pH 7.4.
The log D has been tested at pH 7.4. The testing has been carried out by the following method: Isocratic HPLC method: Column YMC Pro C18, 150 mm×4.0 mm, 3 μm, Eluent Phosphate buffer pH 7.4/acetonitrile (45/55, (v/v)), Runtime 15-60 min, Flow rate 1.2 ml/min, Detection wavelength: 220 nm

[2] = Chemical hydrolysis stability at pH 1 and pH 7.4 (HPLC); format: physicochemical; conditions: 37° C., over 12 h
Protocol: The stability of compounds of the present invention is tested at pH 1 and at pH 7.4. The testing is carried out by the following HPLC method:
Chemical hydrolysis rates t1/2 [h] of selected compounds of formula I are determined in 0.1 N HCl (pH 1) and PBS buffer (pH 7.4) solution. Solutions are prepared by dissolving an appropriate amount of compound in 0.1 N HCl and PBS buffer solution. Samples were withdrawn at designated time intervals and analysed for remaining prodrug by HPLC at 37° C. over 12 h.
Reversed phase gradient HPLC method, column YMC Pro C8, 50 mm×4.0 mm, 3 μm, Eluent A: Water:trifluoroacetic acid (100:0.5 (v/v)), Eluent B: Acetonitrile:trifluoroacetic:acid (100:0.5 (v/v)). Column temperature 30° C., Flow rate 3.0 mL/min, Detection wavelength: 220 nm
For evaluation, the peak area of the respective compound from the first injection is defined as 100% relative concentration. The peak areas of all other subsequent injections are calculated in percentage relating to this standard. (relative concentration in %). The relative concentrations are plotted in a logarithmic scale (ln) against the injection times. Based on the assumption of a first order kinetic, the rate constant and half life times (t1/2 [h]) can be calculated.

[3] = Solubility in 0.1 N HCl, PBS buffer, FaSSIF and FeSSIF; format: physicochemical; conditions: thermodynamic from solid, ambient temperature
Protocol: For testing solubility, saturated solutions of selected compounds of formula I are prepared in four different systems and compared to the solubility of entacapone. The solubility is tested in 0.1 N HCl (pH 1), PBS buffer (pH 7.4) and in two simulated gastric fluids, FaSSIF at pH 6.5 (for fasting state) and FeSSIF at pH 5.0 (for fed state) at ambient temperature. The content of the FaSSIF simulated gastric fluid is as follows:
The solubility testing is carried out by the following method: An excess amount of each compound is added to a 0.1 N HCl, PBS buffer, FeSSIF and FaSSIF. The suspensions are shaken for 10 min. After centrifugation the concentration is determined by HPLC. Reversed phase gradient HPLC method, column YMC Pro C8, 50 mm×4.0 mm, 3 μm, Eluent A: Water:trifluoroacetic acid (100:0.5 (v/v)), Eluent B: Acetonitrile:trifluoroacetic:acid (100:0.5 (v/v)). Column temperature 30° C., Flow rate 3.0 mL/min, Detection wavelength: 220 nm

[4] = Permeability in Caco-2 cells, apical to basolateral; format: in vitro ADME; set-up: dose or concentration left out as unconfirmed; conditions: human; 21d Caco-2 monolayer, apical pH 6.5 to basolateral pH 7.4, 60 minutes
Excerpt: The human adenocarcinoma cell line Caco-2 is used as an in vitro system to predict oral absorption. These cells serve as a model of small bowel tissue and permeation through these cells is a predictor for gastro-intestinal absorption. Further to being a model for oral absorption, permeability in Caco-2 cells may be predictive for the blood brain barrier permeability (P. Garberg et al.; Toxicology in vitro 19 (2005); 299-334). […] The permeability in Caco-2 cells has been tested by the following method:
The permeability of selected compounds of formula I across Caco-2 (21d Caco-2-culture) monolayer in the apical to basolateral direction is investigated. Control substances were ^3H-propranolol and ^3H-mannitol.
The nominal concentration of the test items is […]. The pH value is set to 6.5 for the apical transport medium and to 7.4 for the basolateral medium. Samples are obtained following 60 minutes (120 minutes for control samples) incubation from the basolateral receiver chamber. At sampling time approximately 600 μL of each well are transferred into an eppendorf vial and stored between −12° and −30° C. until HPLC or LC-MS/MS analysis. The control substances are quantified by liquid scintillation.

Plasma stability ex vivo = format: in vitro ADME; conditions: human plasma, 37° C., read-out: t1/2 plasma
Protocol: Plasma stability is determined in human and rat plasma ex vivo. For the determination of the plasma stability of the compounds of formula I, the test compounds were incubated with human plasma (c=5 μg/mL) at 37° C. for certain time intervals up to 60, resp. 120 min (depending on the compound). Afterwards the incubations were stopped by equivalent addition of acetonitrile for protein precipitation, and the samples were mixed and centrifuged. The supernatants were adequately diluted and analyzed by HPLC with UV detection at 305 nm.
The degradation of the compounds of formula I as well as the formation of the active drug entacapone were monitored, and the half-life times of the compounds of formula I were calculated from the obtained peak areas.

[5] = pH 1, 0.1 N HCl, read-out: t1/2 at pH 1 (converted)
[6] = pH 7.4, PBS buffer, read-out: t1/2 at pH 7.4 (converted)
[7] = 0.1 N HCl, pH 1, simulated gastric fluid, shaken 10 min, read-out: Solubility 0.1N HCl Ph 1.0
[8] = FaSSIF, pH 6.5, fassif, fasting state fluid, read-out: Solubility FaSSIF Ph 6.5
[9] = FeSSIF, pH 5, fessif, fed state fluid, read-out: Solubility FeSSIF Ph 5.0
[10] = PBS buffer, pH 7.4, aqueous buffer, read-out: Solubility PBS Ph 7.4

SMILES	chromatographic logD [1]	half-life [2, 5] [min]	half-life [2, 6] [min]	solubility at 10 min [3, 7] [µg/mL]	solubility at 10 min [3, 8] [µg/mL]	solubility at 10 min [3, 9] [µg/mL]	solubility at 10 min [3, 10] [µg/mL]	Papp A→B at 60 min [4] [×10⁻⁶ cm/s]	half-life at 5 μg/mL (Plasma stability ex vivo) [min]
CCN(CC)C(=O)/C(C#N)=C/c1cc(OC(=O)OCc2ccccc2)c(O)c([N+](=O)[O-])c1 [Compound 11, Carbonic acid benzyl ester 5-((E)-2-cyano-2-diethylcarbamoyl-vinyl)-2-hydroxy-3-nitro-phenyl ester]	1.6	180	246	150 (≈ 341 µM)	80 (≈ 182 µM)	20 (≈ 45.5 µM)	280 (≈ 637 µM)	–	–
CCN(CC)C(=O)/C(C#N)=C/c1cc(OC(=O)OCC2COC(C)(C)O2)c(O)c([N+](=O)[O-])c1 (centres unmarked) [Compound 12, Carbonic acid 5-((E)-2-cyano-2-diethylcarbamoyl-vinyl)-2-hydroxy-3-nitro-phenyl ester 2,2-dimethyl-[1,3]dioxolan-4-ylmethyl ester]	–	< 60	168	–	–	–	–	2.3	–
CCN(CC)C(=O)/C(C#N)=C/c1cc(OC(=O)OCC(=O)O)c(O)c([N+](=O)[O-])c1 [Compound 146, [5-((E)-2-Cyano-2-diethylcarbamoyl-vinyl)-2-hydroxy-3-nitro-phenoxycarbonyloxy]-acetic acid]	1.7	660	732	30 (≈ 73.6 µM)	630 (≈ 1550 µM)	250 (≈ 614 µM)	830 (≈ 2040 µM)	–	–
CCOC(=O)C(C)(C)OC(=O)Oc1cc(/C=C(\C#N)C(=O)N(CC)CC)cc([N+](=O)[O-])c1O [Compound 26, 2-[5-((E)-2-Cyano-2-diethylcarbamoyl-vinyl)-2-hydroxy-3-nitro-phenoxycarbonyloxy]-2-methyl-propionic acid ethyl ester]	–	–	–	–	–	–	–	< 5.1	–
CCN(CC)CCOC(=O)Oc1cc(/C=C(\C#N)C(=O)N(CC)CC)cc([N+](=O)[O-])c1O [Compound 55, Carbonic acid 5-((E)-2-cyano-2-diethylcarbamoyl-vinyl)-2-hydroxy-3-nitro-phenyl ester 2-diethylamino-ethyl ester]	1	246	< 60	> 1000	> 1000	> 1000	> 1000	–	–
CCOC(=O)CC(C)OC(=O)Oc1cc(/C=C(\C#N)C(=O)N(CC)CC)cc([N+](=O)[O-])c1O (centres unmarked) [Compound 34, 3-[5-((E)-2-Cyano-2-diethylcarbamoyl-vinyl)-2-hydroxy-3-nitro-phenoxycarbonyloxy]-butyric acid ethyl ester]	–	–	–	–	–	–	–	14.6	–
C#CCCOC(=O)Oc1cc(/C=C(\C#N)C(=O)N(CC)CC)cc([N+](=O)[O-])c1O [Compound 83, Carbonic acid but-3-ynyl ester 5-((E)-2-cyano-2-diethylcarbamoyl-vinyl)-2-hydroxy-3-nitro-phenyl ester]	1.1	768	180	10 (≈ 24.9 µM)	910 (≈ 2270 µM)	430 (≈ 1070 µM)	850 (≈ 2120 µM)	4.9	–
CCN(CC)C(=O)/C(C#N)=C/c1cc(OC(=O)OC(C)c2ccccc2)c(O)c([N+](=O)[O-])c1 (centres unmarked) [Compound 137, Carbonic acid 5-((E)-2-cyano-2-diethylcarbamoyl-vinyl)-2-hydroxy-3-nitro-phenyl ester 1-phenyl-ethyl ester]	2.6	468	1280	–	150 (≈ 331 µM)	20 (≈ 44.1 µM)	340 (≈ 750 µM)	–	–
CCN(CC)C(=O)/C(C#N)=C/c1cc(OC(=O)OC(C)(C)C(=O)OC)c(O)c([N+](=O)[O-])c1 [Compound 20, 2-[5-((E)-2-Cyano-2-diethylcarbamoyl-vinyl)-2-hydroxy-3-nitro-phenoxycarbonyloxy]-2-methyl-propionic acid methyl ester]	–	–	–	–	–	–	–	11.7	–
CCN(CC)C(=O)COC(=O)Oc1cc(/C=C(\C#N)C(=O)N(CC)CC)cc([N+](=O)[O-])c1O [Compound 18, Carbonic acid 5-((E)-2-cyano-2-diethylcarbamoyl-vinyl)-2-hydroxy-3-nitro-phenyl ester diethylcarbamoylmethyl ester]	–	–	–	–	–	–	–	< 5.1	–
CCCCCOC(=O)Oc1cc(/C=C(\C#N)C(=O)N(CC)CC)cc([N+](=O)[O-])c1O [Compound 6, Carbonic acid 5-((E)-2-cyano-2-diethylcarbamoyl-vinyl)-2-hydroxy-3-nitro-phenyl ester pentyl ester]	–	–	–	–	–	–	–	< 5.1	–
CCN(CC)C(=O)/C(C#N)=C/c1cc(OC(=O)OCc2ccc3c(c2)OCO3)c(O)c([N+](=O)[O-])c1 [Compound 131, Carbonic acid benzo[1,3]dioxol-5-ylmethyl ester 5-((E)-2-cyano-2-diethylcarbamoyl-vinyl)-2-hydroxy-3-nitro-phenyl ester]	0.9	918	204	20 (≈ 41.4 µM)	960 (≈ 1990 µM)	710 (≈ 1470 µM)	970 (≈ 2010 µM)	–	–
CCN(CC)C(=O)/C(C#N)=C/c1cc(OC(=O)OCc2ccc([N+](=O)[O-])cc2)c(O)c([N+](=O)[O-])c1 [Compound 27, Carbonic acid 5-((E)-2-cyano-2-diethylcarbamoyl-vinyl)-2-hydroxy-3-nitro-phenyl ester 4-nitro-benzyl ester]	> 8	204	96	–	–	–	–	18.1	> 8
C=CCOC(=O)Oc1cc(/C=C(\C#N)C(=O)N(CC)CC)cc([N+](=O)[O-])c1O [Compound 65, Carbonic acid allyl ester 5-((E)-2-cyano-2-diethylcarbamoyl-vinyl)-2-hydroxy-3-nitro-phenyl ester]	1	990	246	–	–	–	–	8.5	1
CCN(CC)C(=O)/C(C#N)=C/c1cc(OC(=O)OC2CC3CCC2(C)C3(C)C)c(O)c([N+](=O)[O-])c1 (centres unmarked) [Compound 67, Carbonic acid 5-((E)-2-cyano-2-diethylcarbamoyl-vinyl)-2-hydroxy-3-nitro-phenyl ester 1,7,7-trimethyl-bicyclo[2.2.1]hept-2-yl ester]	2.8	768	864	–	–	–	–	14.8	2.8
